This is an account of results in patent EP1013282A2, “Pharmaceutical and foodstuff compositions containing transferrins and antibacteral agents for potentiating host defence activity and the treatment of infections” (priority 1992, dated 1993).

For one series, the system named is Proteus vulgaris OX.8. The experiment in a line: Intraperitoneal Proteus vulgaris infection in mice: oral β-lactam with or without oral lactoferrin (Example 4). To be noted: for ED50: ddY mice n=6, survivors at one week; for simultaneous administration with lactoferrin reduced the ED50s to: fraction of ED50 of antibiotic alone, lactoferrin 0.5 mg/mouse. It counts as in vivo. The method, then: Example 4-The efficacy potentiation of lactoferrin was examined using mice infected with Proteus vulgaris OX.8. Each group of six mice, strain ddY, four weeks old, were intraperitoneally infected with P. vulgaris suspended in 3% gastric mucin at a dose of 2 x 10^6 cells per mouse. One hour after the injection, lactoferrin (0.5 mg/mouse) was orally given simultaneously with cephalosporins. […]
Consequently, the efficacy potentiation of cephalosporin due to simultaneous treatment with lactoferrin is not restricted merely to the pathogens belonging to the genus Escherichia and Klebsiella, but also includes Proteus.

The subject of series [1] is Proteus mirabilis strain 1287. The experiment in a line: Upper urinary tract infection in mice, kidney colony count (Example 9). To be noted: for colony count ratio, lactoferrin (+) to (-): Lactoferrin (+) relative to Lactoferrin (-). It counts as in vivo. The text has this: Example 9-Male ICR mice, five weeks old, were dehydrated overnight, and Proteus mirabilis strain 1287 was inoculated into the bladder at a dose of 2 x 10^5 CFU per mouse. In order for the pathogen to colonize the kidneys, the urethra was closed by a clip for four hours. Ampicillin was orally given to the mice twice daily (10:00 am and 7:00 pm) for two consecutive days with or without oral lactoferrin therapy. On day 3 all mice were sacrificed and the kidneys were dissected ascetically. The kidneys were homogenized in sterile saline and the homogenate was spread over nutrient agar plates to determine the numbers of colonizing bacteria. […]

The test system of series [2] is Escherichia coli strain c-11. The series is described as follows: Intraperitoneal E. coli infection in mice: oral cephalosporin with or without oral lactoferrin (Example 3). It counts as in vivo. To be noted: for ED50: ddY mice n=6, survivors at one week; for ED50s reduced by simultaneous administration of lactoferrin to: fraction of ED50 of antibiotic alone, lactoferrin 1 mg/mouse. The method, then:
Example 3-groups of six male mice strain ddY, four weeks old, were used in this experiment. They were intraperitoneally infected with 3% mucin suspension of Escherichia coli strain c-11 at a dose of 1 X 10^6 cells per mouse. Oral cephalosporin antibiotic was administered one hour after the injection simultaneously with bovine milk lactoferrin (26% iron saturation), 1 mg/mouse. Each control was given cephalosporin alone. The mice were observed one week after the injection and survivors were regarded as completely cured. […]

Series [3] deals with Escherichia coli c 11. The experiment in a line: Timing of lactoferrin administration with cefaclor in E. coli infected mice (Example 7). It counts as in vivo. To be noted: control (no lactoferrin). The text has this: Example 7-The timing of lactoferrin administration is very important not only from a clinical point of view, but also from an economical point of view, since it indicates whether or not the treatment with lactoferrin is prophylactic, or curative, or both. The timing was studied using the same model as described in Example 6. Cefaclor was orally given one hour after injection of the bacteria. […]

The nature of series [4]: Serum concentrations of cephalosporins with or without lactoferrin, bioassay with Bacillus subtilis (Experimental Example 2). As for the experimental part:
Experimental Example 2-The effect of lactoferrin on intestinal absorption of cephalosporin antibiotics was studied using male ddY mice (n=6), five weeks old.
The cephalosporin antibiotics used were cephalexin, cefixime, cefaclor and cefroxazine, and the serum , concentrations were determined by bioassay using Bacillus subtilis. The doses of the antibiotics and lactoferrin were 0.5 mg per mouse of each.

Series [5] concerns Escherichia coli c 11. The series is described as follows: Optimal dose of lactoferrin with cefaclor in E. coli infected mice (Example 6). To be noted: Lactoferrin dose 0.000 (cefaclor alone). It counts as in vivo. The method, then: Example 6-Optimal dose of lactoferrin was studied using mice strain ddY (n=6), four weeks old. The mice were intraperitoneally infected with Escherichia coli c 11 at a dose of 1 x 10^6 cells per mouse, and they were treated once orally with a mixture of lactoferrin and cefaclor one hour after the injection.

Series [6] concerns Escherichia coli c 11. The experiment in a line: Intraperitoneal E. coli infection in mice: other chemotherapies with or without lactoferrin (Example 5). It counts as in vivo. To be noted: for ED50: gentamicin subcutaneous, ddY mice n=6; for potentiation of efficacy of the chemotherapy by lactoferrin: lactoferrin 0.5 mg/mouse oral, in vivo. The text has this: Example 5-The antimicrobial activities of chemotherapies were compared with or without lactoferrin treatment. The antimicrobial agents used were new quinolones, aminoglycoside antibiotic, gentamicin, erythromycin, chloramphenicol and minocycline. The efficacy was compared between the controls and lactoferrin groups. Mice strain ddY, four weeks old, were randomly allocated into groups (n=6) and intraperitoneally infected with Escherichia coli c 11 at a dose of 1 x 10^6 cells per mouse. One hour after the injection the chemotherapies and lactoferrin (0.5 mg/mouse) were simultaneously given orally except gentamicin was given subcutaneously since it is unabsorable from the intestinal tract. Evaluation of potentiation of the chemotherapies by lactoferrin is the same as described above. […]

The mark [7] stands for this setting: antibiotic alone (Lactoferrin -), oral one hour after infection.
Where [8] appears, read: antibiotic with Lactoferrin + (0.5 mg/mouse, oral, simultaneous).
Where [9] appears, read: antibiotic with Lactoferrin + (bovine milk lactoferrin 1 mg/mouse, oral, simultaneous).
Setting [10] is: mice, oral, lactoferrin simultaneously, blood withdrawn periodically.
Setting [11] is: agent alone (Lactoferrin -), oral, one hour after infection.
[12] abbreviates: agent with Lactoferrin + (0.5 mg/mouse oral, simultaneous).

Consider `CC1(C)S[C@@H]2[C@H](NC(=O)[C@H](N)c3ccccc3)C(=O)N2[C@H]1C(=O)O` [ampicillin], for which the ED50 with Proteus vulgaris OX.8 (setting [7]) is given as 0.300 mg/mouse; in the series on Proteus vulgaris OX.8 (setting [8]), 0.148 mg/mouse. The “simultaneous administration with lactoferrin reduced the ED50s to” value in the series on Proteus vulgaris OX.8 is on record as 1/2. Also, the “colony quantity, Lactoferrin (-)” value is reported as 100,704 CFU/kidney in series [1] (ampicillin 0.01 mg/mouse); 63,216 CFU/kidney in series [1] (ampicillin 0.1 mg/mouse); 88 CFU/kidney in series [1] (ampicillin 1.0 mg/mouse oral twice daily for two days, ICR mice, kidneys on day 3). Moreover, the “colony quantity, Lactoferrin (+)” value was determined as 58 CFU/kidney in series [1] (ampicillin 0.01 mg/mouse with lactoferrin 1 mg per mouse), 36 CFU/kidney in series [1] (ampicillin 0.1 mg/mouse with lactoferrin 1 mg per mouse) and 0 CFU/kidney in series [1] (ampicillin 1.0 mg/mouse with lactoferrin 1 mg per mouse). For the same compound, the “colony count ratio, lactoferrin (+) to (-)” value is reported as 1/1736 in series [1] (ampicillin 0.01 mg/mouse), 1/1756 in series [1] (ampicillin 0.1 mg/mouse) and <1/88 in series [1] (ampicillin 1.0 mg/mouse).
Turning to `N[C@@H](C(=O)N[C@@H]1C(=O)N2C(C(=O)O)=C(Cl)CS[C@H]12)c1ccccc1` [cefaclor], the ED50 in the series on Proteus vulgaris OX.8 (setting [7]) came to 1.790 mg/mouse; in the series on Proteus vulgaris OX.8 (setting [8]), 0.058 mg/mouse; in series [2] (setting [7]), 0.75 mg/mouse; in series [2] (setting [9]), 0.38 mg/mouse; with Escherichia coli c 11 [3], 1.846 mg/mouse; with Escherichia coli c 11 [5], 1.510 mg/mouse. For the same compound, the “simultaneous administration with lactoferrin reduced the ED50s to” value in the series with Proteus vulgaris OX.8 is 1/3. In series [2], the “ED50s reduced by simultaneous administration of lactoferrin to” value (“ED50s reduced” for short) was 1/2. Besides, the “blood levels of the antibiotics with versus without lactoferrin” value in series [4] (setting [10]) is recorded as “virtually the same”.
Regarding `CC1=C(C(=O)O)N2C(=O)[C@@H](NC(=O)[C@H](N)c3ccccc3)[C@H]2SC1` [cefalexin], the ED50 in the series with Proteus vulgaris OX.8 (setting [7]) came to 0.402 mg/mouse; in the series on Proteus vulgaris OX.8 (setting [8]), 0.185 mg/mouse; in series [2] (setting [7]), 8.54 mg/mouse; in series [2] (setting [9]), 1.42 mg/mouse. Further, in the series with Proteus vulgaris OX.8, the “simultaneous administration with lactoferrin reduced the ED50s to” value is recorded as 1/2. Also, the “ED50s reduced” value in series [2] is given as 1/4. For the same compound, the “blood levels of the antibiotics with versus without lactoferrin” value in series [4] (mouse, in vivo, po) is “virtually the same”.
In the case of `C=CC1=C(C(=O)O)N2C(=O)[C@@H](NC(=O)/C(=N\OCC(=O)O)c3csc(N)n3)[C@H]2SC1` [cefixime], the ED50 in the series on Proteus vulgaris OX.8 (setting [7]) came out at 0.519 mg/mouse; with Proteus vulgaris OX.8 (setting [8]), 0.177 mg/mouse; in series [2] (setting [7]), 1.03 mg/mouse; in series [2] (setting [9]), 0.23 mg/mouse. The “simultaneous administration with lactoferrin reduced the ED50s to” value with Proteus vulgaris OX.8 is 1/3. In addition, the “ED50s reduced” value in series [2] was 1/4. Besides, the “blood levels of the antibiotics with versus without lactoferrin” value in series [4] (setting [10]) is given as “virtually the same”.
For the compound `COC1=C(C(=O)O)N2C(=O)[C@@H](NC(=O)[C@H](N)C3=CCC=CC3)[C@H]2SC1` [cefroxadine], the ED50 with Proteus vulgaris OX.8 (setting [7]) is on record as 0.606 mg/mouse; with Proteus vulgaris OX.8 (setting [8]), 0.312 mg/mouse; in series [2] (setting [7]), 1.27 mg/mouse; in series [2] (setting [9]) it was 0.42 mg/mouse. In series [2], the “ED50s reduced” value is on record as 1/3. In series [4] (setting [10]), the “blood levels of the antibiotics with versus without lactoferrin” value is “virtually the same”.
`O=C(N[C@H](CO)[C@H](O)c1ccc([N+](=O)[O-])cc1)C(Cl)Cl` [chloramphenicol]: the results for the ED50 with Escherichia coli c 11 [6] (setting [11]) and with Escherichia coli c 11 [6] (setting [12]) were 5.11 mg/mouse and 1.94 mg/mouse, respectively. In the series on Escherichia coli c 11 [6], the “potentiation of efficacy of the chemotherapy by lactoferrin” value is listed as “potentiated the efficacy”.
On to `O=C(O)c1cn(C2CC2)c2cc(N3CCNCC3)c(F)cc2c1=O` [ciprofloxacin], for which the ED50 came out at 0.200 mg/mouse in the series on Escherichia coli c 11 [6] (setting [11]) and 0.214 mg/mouse in the series on Escherichia coli c 11 [6] (setting [12]).
On to `CC[C@H]1OC(=O)[C@H](C)[C@@H](O[C@H]2C[C@@](C)(OC)[C@@H](O)[C@H](C)O2)[C@H](C)[C@@H](O[C@@H]2O[C@H](C)C[C@H](N(C)C)[C@H]2O)[C@](C)(O)C[C@@H](C)C(=O)[C@H](C)[C@@H](O)[C@]1(C)O` [erythromycin], for which, in the series with Escherichia coli c 11 [6], the “potentiation of efficacy of the chemotherapy by lactoferrin” value is reported as “potentiated the efficacy”.
Regarding `CN(C)c1ccc(O)c2c1C[C@H]1C[C@H]3[C@H](N(C)C)C(O)=C(C(N)=O)C(=O)[C@@]3(O)C(O)=C1C2=O` [minocycline], the ED50 stood at 1.859 mg/mouse in the series with Escherichia coli c 11 [6] (setting [11]) and 0.631 mg/mouse in the series with Escherichia coli c 11 [6] (setting [12]).
In the case of `CC1COc2c(N3CCN(C)CC3)c(F)cc3c(=O)c(C(=O)O)cn1c23` (stereo not shown) [ofloxacin], the ED50 in the series with Escherichia coli c 11 [6] (setting [11]) is 0.231 mg/mouse; in the series on Escherichia coli c 11 [6] (setting [12]), 0.251 mg/mouse.
As to `NC1CCN(c2nc3c(cc2F)c(=O)c(C(=O)O)cn3-c2ccc(F)cc2F)C1` (stereo not shown) [tosfloxacin], the figures for the ED50 in the series with Escherichia coli c 11 [6] (setting [11]) and with Escherichia coli c 11 [6] (setting [12]) were 0.013 mg/mouse and 0.009 mg/mouse, respectively.
In the same order, the values of gentamicin are 0.608 mg/mouse and 0.610 mg/mouse.
